Results published in ChEMBL document CHEMBL1152547, “Synthesis and evaluation of anticancer activity of 2-arylamino-6-trifluoromethyl-3-(hydrazonocarbonyl)pyridines” (Bioorg Med Chem, 2009).

Experiments:
Type in all cases: functional
[1] = Cytotoxicity against human NCI60 cells after 48 hrs by sulforhodamine B assay; conditions: NCI60, 48 h; for TGI: read-out: pTGI (converted)
SR = test: Cytotoxicity against human SR cells after 48 hrs by sulforhodamine B assay
[2] = Cytotoxicity against human NCI60 cells assessed as cell growth at 10 uM after 48 hrs by sulforhodamine B assay; conditions: NCI60, 48 h, read-out: Activity
CCRF-CEM = test: Cytotoxicity against human CCRF-CEM cells after 48 hrs by sulforhodamine B assay
HOP-92 = test: Cytotoxicity against human HOP92 cells after 48 hrs by sulforhodamine B assay; conditions: HOP-92, 48 h
OVCAR-3 = test: Cytotoxicity against human OVCAR-3 cells after 48 hrs by sulforhodamine B assay; conditions: OVCAR-3, 48 h
A498 = test: Cytotoxicity against human A498 cells after 48 hrs by sulforhodamine B assay; conditions: A498, 48 h
[3] = read-out: pLC50 (the source's name) (converted)

Row | SMILES | TGI [1] | growth at 10 µM [2] | other results
1 | Cc1ccc(Cl)cc1Nc1nc(C(F)(F)F)ccc1C(=O)N/N=C/c1cccnc1 | 12.6 µM | 20.9% | GI50 (SR): 0.0977 µM
2 | O=C(N/N=C/c1ccncc1)c1ccc(C(F)(F)F)nc1Nc1cccc(C(F)(F)F)c1 | 8.71 µM | 10.8% | 
3 | Cc1cc(Cl)ccc1Nc1nc(C(F)(F)F)ccc1C(=O)N/N=C/c1ccc(N(C)C)cc1 | 66.1 µM | 23.2% | GI50 [1]: 1.7 µM
4 | O=C(N/N=C/c1ccccc1Cl)c1ccc(C(F)(F)F)nc1Nc1cccc(C(F)(F)F)c1 |  | 34.2% | 
5 | Cc1cc(Cl)ccc1Nc1nc(C(F)(F)F)ccc1C(=O)N/N=C/c1ccc(Cl)cc1 | 7.59 µM | -7.31% | 
6 | Cc1ccc(Cl)cc1Nc1nc(C(F)(F)F)ccc1C(=O)N/N=C/c1ccc(N(C)C)cc1 |  | 52.1% | 
7 | COc1cc(/C=N/NC(=O)c2ccc(C(F)(F)F)nc2Nc2cc(Cl)ccc2OC)ccc1O |  | 42.1% | 
8 | COc1cc(/C=N/NC(=O)c2ccc(C(F)(F)F)nc2Nc2cccc(C(F)(F)F)c2)cc(OC)c1OC |  | 44.5% | 
9 | Cc1cc(Cl)ccc1Nc1nc(C(F)(F)F)ccc1C(=O)N/N=C/c1ccc([N+](=O)[O-])cc1 | 4.68 µM | -7.22% | GI50 (CCRF-CEM): 0.0427 µM; TGI (CCRF-CEM; read-out: pTGI (converted)): 0.0776 µM
10 | O=C(N/N=C/c1c(Cl)cccc1Cl)c1ccccc1Nc1cccc(C(F)(F)F)c1 |  | 90.6% | 
11 | COc1cc(/C=N/NC(=O)c2ccc(C(F)(F)F)nc2Nc2cc(Cl)ccc2C)ccc1O |  | 47.2% | 
12 | COc1ccc(Cl)cc1Nc1nc(C(F)(F)F)ccc1C(=O)N/N=C/c1ccc([N+](=O)[O-])cc1 | 8.71 µM | 0.92% | 
13 | COc1ccc(Cl)cc1Nc1nc(C(F)(F)F)ccc1C(=O)N/N=C/c1cccnc1 | 79.4 µM | 44.7% | GI50 [1]: 2.95 µM
14 | Cc1cc(Cl)ccc1Nc1nc(C(F)(F)F)ccc1C(=O)N/N=C/c1cccnc1 |  | 47.2% | 
15 | O=C(N/N=C/c1cccnc1)c1ccc(C(F)(F)F)nc1Nc1cccc(C(F)(F)F)c1 |  | 70.3% | 
16 | COc1ccc(Cl)cc1Nc1nc(C(F)(F)F)ccc1C(=O)N/N=C/c1cc(OC)c(OC)c(OC)c1 | 10.5 µM | 17.6% | 
17 | COc1cc(/C=N/NC(=O)c2ccc(C(F)(F)F)nc2Nc2ccc(Cl)cc2C)cc(OC)c1OC |  | 32.3% | 
18 | CN(C)c1ccc(/C=N/NC(=O)c2ccc(C(F)(F)F)nc2Nc2cccc(C(F)(F)F)c2)cc1 |  | 60.2% | 
19 | Cc1ccc(Cl)cc1Nc1nc(C(F)(F)F)ccc1C(=O)N/N=C/c1ccncc1 |  | 67.9% | 
20 | O=C(N/N=C/c1ccc(F)cc1)c1ccc(C(F)(F)F)nc1Nc1cccc(C(F)(F)F)c1 | 4.47 µM | 7.73% | 
21 | COc1cc(/C=N/NC(=O)c2ccc(C(F)(F)F)nc2Nc2cc(Cl)ccc2C)cc(OC)c1OC |  | 94% | 
22 | COc1ccc(Cl)cc1Nc1nc(C(F)(F)F)ccc1C(=O)N/N=C/c1ccc(F)cc1 |  | 36.5% | 
23 | Cc1ccc(Cl)cc1Nc1nc(C(F)(F)F)ccc1C(=O)N/N=C/c1cccc(O)c1 |  | 90.1% | 
24 | Cc1ccc(Cl)cc1Nc1nc(C(F)(F)F)ccc1C(=O)N/N=C/c1ccccc1Cl |  | 36.2% | 
25 | O=C(N/N=C/c1c(Cl)cccc1Cl)c1ccc(C(F)(F)F)nc1Nc1cccc(C(F)(F)F)c1 | 10.2 µM | 5.01% | GI50 (HOP-92): 0.0447 µM; TGI (HOP-92; read-out: pTGI (converted)): 0.417 µM; GI50 (OVCAR-3): 0.191 µM; CC50 (OVCAR-3; [3]): 77.6 µM; TGI (OVCAR-3; read-out: pTGI (converted)): 0.646 µM; GI50 (A498): 0.191 µM; CC50 (A498; [3]): 9.33 µM; TGI (A498; read-out: pTGI (converted)): 0.646 µM
